Source: patent US9920061B2, “Imidazo[1,5-A]pyrimidinyl carboxamide compounds and their use in the treatment of medical disorders” (Lysosomal Therapeutics Inc., priority 2016, dated 2018)
≈ marks a conversion by molar mass, not a printed value.

Legend:
[1] = Compound solubility in water; format: physicochemical; conditions: in water
[2] = molecular target: T1, glucocerebrosidase (Gcase) (Homo sapiens, UniProt P04062); test: Glucocerebrosidase (Gcase) activation assay, 4-methylumbelliferyl-beta-D-glucopyranoside substrate, with saposin C; format: biochemical; conditions: for activation at 0.1 µM: test compound at 0.1 μM, read-out: Percent Gcase Activation, 0.1 μM Test Compound; for activation at 1 µM: test compound at 1.0 μM, read-out: Percent Gcase Activation, 1 μM Test Compound
T1 sequence (P04062 40-536): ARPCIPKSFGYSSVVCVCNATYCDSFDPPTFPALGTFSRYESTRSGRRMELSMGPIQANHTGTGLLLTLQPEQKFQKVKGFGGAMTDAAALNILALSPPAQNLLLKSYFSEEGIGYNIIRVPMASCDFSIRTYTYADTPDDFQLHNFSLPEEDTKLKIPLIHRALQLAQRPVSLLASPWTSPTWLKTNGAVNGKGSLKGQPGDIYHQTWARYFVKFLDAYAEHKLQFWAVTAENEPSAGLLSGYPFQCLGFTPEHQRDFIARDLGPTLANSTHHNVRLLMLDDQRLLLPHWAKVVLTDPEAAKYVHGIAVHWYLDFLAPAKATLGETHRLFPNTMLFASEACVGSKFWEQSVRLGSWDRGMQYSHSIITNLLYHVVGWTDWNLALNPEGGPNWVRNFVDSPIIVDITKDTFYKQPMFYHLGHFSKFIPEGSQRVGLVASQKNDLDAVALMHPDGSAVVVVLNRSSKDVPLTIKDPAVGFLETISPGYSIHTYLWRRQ
In short: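 Micellar buffer (176 mM K2HPO4/50 mM citric acid, pH 4.7; 0.32 mM triton, 0.37 mol % PS) holding 10 nM GCase and 100 nM saposin C, pre-incubated with compound 30 min at room temperature. Substrate final 2 mM before mixing; 15 min reaction, glycine pH 12.5 stop, fluorescence 365/440 nm. Screened at 1.0 and 0.1 μM; 8-point, 3-fold dose response.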

solubility [1] [µg/mL]	activation at 0.1 µM [2] [%]	activation at 1 µM [2] [%]	Structure (SMILES)
2.1 (≈ 5.51 µM)	> 20	> 60	Cc1cc(-c2cnsc2)nc2c(C(=O)NC(C3CC3)C(F)(F)F)ncn12 (stereo not drawn) [IV-51]
15.4 (≈ 40.4 µM)	10 to 20	> 60	Cc1cc(-c2cnsc2)nc2c(C(=O)N[C@H](C3CC3)C(F)(F)F)ncn12 [IV-52]
13.2 (≈ 34.6 µM)	10 to 20	> 60	Cc1cc(-c2cnsc2)nc2c(C(=O)N[C@@H](C3CC3)C(F)(F)F)ncn12 [IV-53]
2.3 (≈ 5.21 µM)	> 20	> 60	Cc1cc(-c2cccc(-c3ncco3)c2)nc2c(C(=O)NC(C3CC3)C(F)(F)F)ncn12 (stereo not drawn) [IV-60]
3.1 (≈ 7.34 µM)	10 to 20	> 60	COc1c(F)cccc1-c1cc(C)n2cnc(C(=O)NC(C3CC3)C(F)(F)F)c2n1 (stereo not drawn) [IV-63]
1.5 (≈ 3.55 µM)	> 20	> 60	COc1ccc(-c2cc(C)n3cnc(C(=O)NC(C4CC4)C(F)(F)F)c3n2)cc1F (stereo not drawn) [IV-70]
1.5 (≈ 3.55 µM)	> 20	> 60	COc1ccc(F)cc1-c1cc(C)n2cnc(C(=O)NC(C3CC3)C(F)(F)F)c2n1 (stereo not drawn) [IV-71]
1.1 (≈ 2.65 µM)	> 20	> 60	Cc1cc(-c2ccc3ocnc3c2)nc2c(C(=O)NC(C3CC3)C(F)(F)F)ncn12 (stereo not drawn) [IV-72]
0.5 (≈ 1.2 µM)	> 20	> 60	Cc1cc(-c2ccc3c(c2)OCO3)nc2c(C(=O)NC(C3CC3)C(F)(F)F)ncn12 (stereo not drawn) [IV-75]
1.2 (≈ 3.06 µM)	> 20	> 60	Cc1cc(-c2ccc3c(c2)OCO3)nc2c(C(=O)NC(C)C(F)(F)F)ncn12 (stereo not drawn) [IV-76]
1.3 (≈ 3.31 µM)	> 20	> 60	Cc1cc(-c2ccc3c(c2)OCO3)nc2c(C(=O)N[C@H](C)C(F)(F)F)ncn12 [IV-77]
3.3 (≈ 8.41 µM)	> 20	> 60	Cc1cc(-c2ccc3c(c2)OCO3)nc2c(C(=O)N[C@@H](C)C(F)(F)F)ncn12 [IV-78]
0.5 (≈ 1.1 µM)	> 20	> 60	Cc1cc(-c2cccc(-c3ncncn3)c2)nc2c(C(=O)NC(C3CC3)C(F)(F)F)ncn12 (stereo not drawn) [IV-79]
3.7 (≈ 8.87 µM)	> 20	> 60	Cc1cc(-c2ccc(F)cc2C#N)nc2c(C(=O)NC(C3CC3)C(F)(F)F)ncn12 (stereo not drawn) [IV-80]
1 (≈ 2.57 µM)	10 to 20	> 60	Cc1cc(-c2cc(C#N)co2)nc2c(C(=O)NC(C3CC3)C(F)(F)F)ncn12 (stereo not drawn) [IV-81]
1.9 (≈ 4.88 µM)	> 20	> 60	Cc1cc(-c2occc2C#N)nc2c(C(=O)NC(C3CC3)C(F)(F)F)ncn12 (stereo not drawn) [IV-82]
1.2 (≈ 3.29 µM)	> 20	> 60	Cc1cc(-c2ccco2)nc2c(C(=O)NC(C3CC3)C(F)(F)F)ncn12 (stereo not drawn) [IV-83]
3.2 (≈ 8.78 µM)	> 20	> 60	Cc1cc(-c2ccoc2)nc2c(C(=O)NC(C3CC3)C(F)(F)F)ncn12 (stereo not drawn) [IV-84]
3.6 (≈ 8.88 µM)	> 20	> 60	Cc1cc(-c2ccc(C#N)s2)nc2c(C(=O)NC(C3CC3)C(F)(F)F)ncn12 (stereo not drawn) [IV-86]
9.2 (≈ 22.7 µM)	> 20	> 60	Cc1cc(-c2csc(C#N)c2)nc2c(C(=O)NC(C3CC3)C(F)(F)F)ncn12 (stereo not drawn) [IV-87]
0.3 (≈ 0.744 µM)	> 20	> 60	Cc1cc(C#N)c(-c2cc(C)n3cnc(C(=O)NC(C4CC4)C(F)(F)F)c3n2)o1 (stereo not drawn) [IV-92]
0.7 (≈ 1.68 µM)	> 20	> 60	Cc1cc(-c2cc(F)ccc2C#N)nc2c(C(=O)NC(C3CC3)C(F)(F)F)ncn12 (stereo not drawn) [IV-108]

More lines, now with the values behind:

Structure (SMILES)	solubility [1] [µg/mL]	activation at 0.1 µM [2] [%]	activation at 1 µM [2] [%]
Cc1cc(-c2cnsc2)nc2c(C(=O)NC(C)(C)C)ncn12 [IV-55]	8.2 (≈ 26 µM)	< 10	> 60
COc1cc(F)cc(-c2cc(C)n3cnc(C(=O)N[C@@H](C)C4CC4)c3n2)c1 [IV-56]	3.7 (≈ 10 µM)	> 20	> 60
COc1cc(F)cc(-c2cc(C)n3cnc(C(=O)NC(C)C(F)(F)F)c3n2)c1 (stereo not drawn) [IV-57]	1.2 (≈ 3.03 µM)	> 20	> 60
COc1cc(F)cc(-c2cc(C)n3cnc(C(=O)N[C@H](C)C(F)(F)F)c3n2)c1 [IV-58]	2.3 (≈ 5.8 µM)	> 20	> 60
COc1cc(F)cc(-c2cc(C)n3cnc(C(=O)N[C@@H](C)C(F)(F)F)c3n2)c1 [IV-59]	2.2 (≈ 5.55 µM)	> 20	> 60
COc1c(F)cccc1-c1cc(C)n2cnc(C(=O)N[C@@H](C)C3CC3)c2n1 [IV-62]	16 (≈ 43.4 µM)	< 10	> 60
COc1c(F)cccc1-c1cc(C)n2cnc(C(=O)NC(C)C(F)(F)F)c2n1 (stereo not drawn) [IV-64]	21 (≈ 53 µM)	< 10	30 to 60
COc1c(C#N)cccc1-c1cc(C)n2cnc(C(=O)N[C@@H](C)C3CC3)c2n1 [IV-65]	15.6 (≈ 41.6 µM)	< 10	< 30
COc1c(C#N)cccc1-c1cc(C)n2cnc(C(=O)NC(C)C(F)(F)F)c2n1 (stereo not drawn) [IV-66]	23.9 (≈ 59.3 µM)	< 10	< 30
COc1c(C#N)cccc1-c1cc(C)n2cnc(C(=O)NC(C3CC3)C(F)(F)F)c2n1 (stereo not drawn) [IV-67]	13.5 (≈ 31.4 µM)	< 10	30 to 60
COc1cccc(-c2cc(C)n3cnc(C(=O)N[C@@H](C)C4CC4)c3n2)c1C#N [IV-68]	0.7 (≈ 1.86 µM)	> 20	> 60
COc1cccc(-c2cc(C)n3cnc(C(=O)NC(C4CC4)C(F)(F)F)c3n2)c1C#N (stereo not drawn) [IV-69]	1.3 (≈ 3.03 µM)	> 20	> 60
Cc1cc(-c2ccc3ocnc3c2)nc2c(C(=O)NC(C)C(F)(F)F)ncn12 (stereo not drawn) [IV-73]	2.1 (≈ 5.39 µM)	> 20	> 60
Cc1cc(-n2ccc(Cl)n2)nc2c(C(=O)NC(C)C(F)(F)F)ncn12 (stereo not drawn) [IV-74]	4.2 (≈ 11.3 µM)	< 10	30 to 60
Cc1cc(-c2cc(C#N)cs2)nc2c(C(=O)NC(C3CC3)C(F)(F)F)ncn12 (stereo not drawn) [IV-85]	5.9 (≈ 14.6 µM)	> 20	> 60
Cc1cc(-c2ccsc2C#N)nc2c(C(=O)NC(C3CC3)C(F)(F)F)ncn12 (stereo not drawn) [IV-88]	0.3 (≈ 0.74 µM)	> 20	> 60
Cc1cc(N2CCCN(C(C)C)C2=O)nc2c(C(=O)NC(C3CC3)C(F)(F)F)ncn12 (stereo not drawn) [IV-89]	25.6 (≈ 58.4 µM)	< 10	< 30
CCc1cc(N2CCN(CC(F)(F)F)C2=O)nc2c(C(=O)NC(C3CC3)C(F)(F)F)ncn12 (stereo not drawn) [IV-90]	25.6 (≈ 53.5 µM)	10 to 20	> 60
Cc1sc(C#N)cc1-c1cc(C)n2cnc(C(=O)NC(C3CC3)C(F)(F)F)c2n1 (stereo not drawn) [IV-95]	2.5 (≈ 5.96 µM)	> 20	> 60
Cc1cc(C(=O)Nc2ccccc2)nc2c(C(=O)NC(C3CC3)C(F)(F)F)ncn12 (stereo not drawn) [IV-100]	6.2 (≈ 14.9 µM)	< 10	< 30
Cc1cc(-c2cccc(OC(F)(F)F)n2)nc2c(C(=O)N[C@@H](C)C3CC3)ncn12 [IV-101]	1.5 (≈ 3.7 µM)	> 20	> 60
CCOc1cccc(-c2cc(C)n3cnc(C(=O)NC(C4CC4)C(F)(F)F)c3n2)n1 (stereo not drawn) [IV-102]	7.8 (≈ 18.6 µM)	> 20	> 60
COc1ccc(F)c(-c2cc(C)n3cnc(C(=O)NC(C)(C)C)c3n2)c1 [IV-103]	0.7 (≈ 1.96 µM)	10 to 20	> 60
COc1ccc(F)c(-c2cc(C)n3cnc(C(=O)NC(C)C(F)(F)F)c3n2)c1 (stereo not drawn) [IV-104]	0.7 (≈ 1.77 µM)	> 20	> 60
CCc1cc(-c2ccns2)nc2c(C(=O)NC(C)(C)C)ncn12 [IV-105]	15.9 (≈ 48.3 µM)	10 to 20	> 60
CCc1cc(-c2ccsn2)nc2c(C(=O)NC(C3CC3)C(F)(F)F)ncn12 (stereo not drawn) [IV-106]	0.6 (≈ 1.52 µM)	> 20	> 60
CCc1cc(N2CCC(C)(C)C2=O)nc2c(C(=O)NC(C3CC3)C(F)(F)F)ncn12 (stereo not drawn) [IV-107]	29.6 (≈ 69.9 µM)	10 to 20	> 60
Cc1cc(-c2ccccc2C#N)nc2c(C(=O)NC(C)(C)C)ncn12 [IV-109]	2.5 (≈ 7.5 µM)	< 10	30 to 60
